According to the supplement of paper PMC10627819:

How the values were obtained:
S. aureus DSM 20231 [1] = test: Bliss interaction score (quartile over a dose matrix) (fitness difference); higher = more antagonism (negative = synergy)
Procedure, shortened: (§1)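 The Bliss score was calculated by subtracting the expected fitness, the product of single-drug values, from the observed fitness. OD595 at entry into stationary phase, over the plate's robust no-drug mean and capped at 1, served as the fitness readout. Single-drug values were inferred from combination data, and scores are summarised by quartiles across technical, biological and donor/recipient replicates.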

S. aureus Newman [2] = test: as above
Procedure, shortened: as §1

B. subtilis 168 [3] = test: as above
Procedure, shortened: as §1

S. pneumoniae D39V [4] = test: as above
Procedure, shortened: as §1

S. aureus DSM 20231 [5] = test: fitness (endpoint OD595 vs no drug) (fraction); higher = more growth
Procedure, shortened: (§2)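 Bacterial fitness was scored as optical density at the stationary-phase transition relative to the robust mean of no-drug control wells. Scores are capped at 1. The growth data were OD595 readings every 30 min for 14 h at 37 °C, background-subtracted against the first reading, from 384-well plates inoculated at OD595 0.01 in TSB, LB Lennox or CY.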

S. aureus Newman [6] = test: as above
Procedure, shortened: as §2

B. subtilis 168 [7] = test: as above
Procedure, shortened: as §2

S. pneumoniae D39V [8] = test: as above
Procedure, shortened: as §2
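For Bliss interaction score (quartile over a dose matrix) in this document: first quartile when negative (synergy) and third quartile when positive (antagonism).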

Cc1ncc([N+](=O)[O-])n1CCO [Metronidazole] + Cc1cc(NS(=O)(=O)c2ccc(N)cc2)no1 [Sulfamethoxazol]
Conditions	Bliss interaction score
B. subtilis 168 [3]	0.0475
S. aureus DSM 20231 [1]	0.0776
S. aureus Newman [2]	0.0439
S. pneumoniae D39V [4]	-0.0219

fitness
Conditions	first compound 0.625 µg/mL	first compound 1.073 µg/mL	first compound 1.25 µg/mL	first compound 2.145 µg/mL	first compound 2.5 µg/mL	first compound 4.29 µg/mL
B. subtilis 168 [7], partner 1 µg/mL	0.876	–	0.951	–	0.948	–
B. subtilis 168 [7], partner 2 µg/mL	0.91	–	0.903	–	0.896	–
B. subtilis 168 [7], partner 4 µg/mL	0.962	–	0.992	–	0.96	–
S. aureus DSM 20231 [5], partner 1 µg/mL	0.982	–	≥ 1	–	≥ 1	–
S. aureus DSM 20231 [5], partner 2 µg/mL	0.983	–	0.986	–	0.988	–
S. aureus DSM 20231 [5], partner 4 µg/mL	0.963	–	0.969	–	0.992	–
S. aureus Newman [6], partner 1 µg/mL	≥ 1	–	0.977	–	0.97	–
S. aureus Newman [6], partner 2 µg/mL	0.94	–	0.978	–	0.95	–
S. aureus Newman [6], partner 4 µg/mL	0.979	–	0.997	–	≥ 1	–
S. pneumoniae D39V [8], partner 1 µg/mL	–	0.935	–	0.792	–	0.912
S. pneumoniae D39V [8], partner 2 µg/mL	–	0.952	–	0.93	–	0.95
S. pneumoniae D39V [8], partner 4 µg/mL	–	0.984	–	0.952	–	0.944

one replicate
Conditions	fitness
B. subtilis 168 [7], first compound 0.625 µg/mL, partner 0.5 µg/mL	≥ 1
B. subtilis 168 [7], first compound 1.25 µg/mL, partner 0.5 µg/mL	≥ 1
B. subtilis 168 [7], first compound 2.5 µg/mL, partner 0.5 µg/mL	≥ 1
S. aureus Newman [6], first compound 0.625 µg/mL, partner 8 µg/mL	0.864
S. aureus Newman [6], first compound 0.781 µg/mL, partner 1 µg/mL	≥ 1
S. aureus Newman [6], first compound 0.781 µg/mL, partner 2 µg/mL	≥ 1
S. aureus Newman [6], first compound 0.781 µg/mL, partner 4 µg/mL	≥ 1
S. aureus Newman [6], first compound 1.25 µg/mL, partner 8 µg/mL	0.911
S. aureus Newman [6], first compound 1.562 µg/mL, partner 1 µg/mL	≥ 1
S. aureus Newman [6], first compound 1.562 µg/mL, partner 2 µg/mL	≥ 1
S. aureus Newman [6], first compound 1.562 µg/mL, partner 4 µg/mL	≥ 1
S. aureus Newman [6], first compound 2.5 µg/mL, partner 8 µg/mL	0.898
S. aureus Newman [6], first compound 3.124 µg/mL, partner 1 µg/mL	0.992
S. aureus Newman [6], first compound 3.124 µg/mL, partner 2 µg/mL	0.982
S. aureus Newman [6], first compound 3.124 µg/mL, partner 4 µg/mL	≥ 1
S. pneumoniae D39V [8], first compound 1.25 µg/mL, partner 1 µg/mL	0.979
S. pneumoniae D39V [8], first compound 1.25 µg/mL, partner 2 µg/mL	≥ 1
S. pneumoniae D39V [8], first compound 1.25 µg/mL, partner 4 µg/mL	0.916
S. pneumoniae D39V [8], first compound 2.5 µg/mL, partner 1 µg/mL	≥ 1
S. pneumoniae D39V [8], first compound 2.5 µg/mL, partner 2 µg/mL	≥ 1
S. pneumoniae D39V [8], first compound 2.5 µg/mL, partner 4 µg/mL	0.917
S. pneumoniae D39V [8], first compound 5 µg/mL, partner 1 µg/mL	≥ 1
S. pneumoniae D39V [8], first compound 5 µg/mL, partner 2 µg/mL	≥ 1
S. pneumoniae D39V [8], first compound 5 µg/mL, partner 4 µg/mL	0.9

CO/N=C(\C(=O)N[C@@H]1C(=O)N2C(C(=O)O)=C(COC(C)=O)CS[C@H]12)c1csc(N)n1 [Cefotaxime] + C[C@@H]1O[C@@H]1P(=O)(O)O [Fosfomycin]
Conditions	Bliss interaction score
B. subtilis 168 [3]	0.0459
S. aureus DSM 20231 [1]	0.143
S. aureus Newman [2]	0.113
S. pneumoniae D39V [4]	-0.0644

fitness, one replicate
Conditions	partner 0.781 µg/mL	partner 1.562 µg/mL	partner 3.124 µg/mL	partner 6.248 µg/mL
B. subtilis 168 [7], first compound 0.00775 µg/mL	–	0.573	0.446	0.274
B. subtilis 168 [7], first compound 0.0155 µg/mL	–	0.443	0.362	0.198
B. subtilis 168 [7], first compound 0.031 µg/mL	–	0.319	0.225	0.156
B. subtilis 168 [7], first compound 0.0625 µg/mL	–	0.454	0.413	0.34
B. subtilis 168 [7], first compound 0.125 µg/mL	–	0.472	0.389	0.238
B. subtilis 168 [7], first compound 0.25 µg/mL	–	0.367	0.337	0.186
S. aureus DSM 20231 [5], first compound 0.039 µg/mL	0.718	0.673	0.504	–
S. aureus Newman [6], first compound 0.039 µg/mL	0.58	0.511	0.202	–
S. aureus Newman [6], first compound 0.312 µg/mL	0.341	0.205	0.117	–

Conditions	fitness
B. subtilis 168 [7], first compound 0.5 µg/mL, partner 1.562 µg/mL	0.244
B. subtilis 168 [7], first compound 0.5 µg/mL, partner 3.124 µg/mL	0.194
B. subtilis 168 [7], first compound 0.5 µg/mL, partner 6.248 µg/mL	0.16
B. subtilis 168 [7], first compound 1 µg/mL, partner 1.562 µg/mL	0.134
B. subtilis 168 [7], first compound 1 µg/mL, partner 3.124 µg/mL	0.102
B. subtilis 168 [7], first compound 1 µg/mL, partner 6.248 µg/mL	0.0644
B. subtilis 168 [7], first compound 2 µg/mL, partner 1.562 µg/mL	0.13
B. subtilis 168 [7], first compound 2 µg/mL, partner 3.124 µg/mL	0.117
B. subtilis 168 [7], first compound 2 µg/mL, partner 6.248 µg/mL	0.054
S. aureus DSM 20231 [5], first compound 0.078 µg/mL, partner 0.781 µg/mL	0.65
S. aureus DSM 20231 [5], first compound 0.078 µg/mL, partner 1.562 µg/mL	0.608
S. aureus DSM 20231 [5], first compound 0.078 µg/mL, partner 3.124 µg/mL	0.559
S. aureus DSM 20231 [5], first compound 0.156 µg/mL, partner 0.781 µg/mL	0.624
S. aureus DSM 20231 [5], first compound 0.156 µg/mL, partner 1.562 µg/mL	0.62
S. aureus DSM 20231 [5], first compound 0.156 µg/mL, partner 3.124 µg/mL	0.532
S. aureus DSM 20231 [5], first compound 0.312 µg/mL, partner 0.781 µg/mL	0.683
S. aureus DSM 20231 [5], first compound 0.312 µg/mL, partner 1.562 µg/mL	0.623
S. aureus DSM 20231 [5], first compound 0.312 µg/mL, partner 3.124 µg/mL	0.518
S. aureus Newman [6], first compound 0.078 µg/mL, partner 0.781 µg/mL	0.628
S. aureus Newman [6], first compound 0.078 µg/mL, partner 1.562 µg/mL	0.536
S. aureus Newman [6], first compound 0.078 µg/mL, partner 3.124 µg/mL	0.21
S. aureus Newman [6], first compound 0.156 µg/mL, partner 0.781 µg/mL	0.536
S. aureus Newman [6], first compound 0.156 µg/mL, partner 1.562 µg/mL	0.497
S. aureus Newman [6], first compound 0.156 µg/mL, partner 3.124 µg/mL	0.206
S. aureus Newman [6], first compound 0.625 µg/mL, partner 0.781 µg/mL	0.17
S. aureus Newman [6], first compound 0.625 µg/mL, partner 1.562 µg/mL	0.185
S. aureus Newman [6], first compound 0.625 µg/mL, partner 3.124 µg/mL	0.084
S. aureus Newman [6], first compound 1.25 µg/mL, partner 0.781 µg/mL	0.0664
S. aureus Newman [6], first compound 1.25 µg/mL, partner 1.562 µg/mL	0.033
S. aureus Newman [6], first compound 1.25 µg/mL, partner 3.124 µg/mL	0.0169
S. aureus Newman [6], first compound 2.5 µg/mL, partner 0.781 µg/mL	0.0252
S. aureus Newman [6], first compound 2.5 µg/mL, partner 1.562 µg/mL	0.0136
S. aureus Newman [6], first compound 2.5 µg/mL, partner 3.124 µg/mL	0.0374
S. pneumoniae D39V [8], first compound 0.0018 µg/mL, partner 1.25 µg/mL	0.958
S. pneumoniae D39V [8], first compound 0.0018 µg/mL, partner 2.5 µg/mL	0.959
S. pneumoniae D39V [8], first compound 0.0018 µg/mL, partner 5 µg/mL	0.761
S. pneumoniae D39V [8], first compound 0.0035 µg/mL, partner 1.25 µg/mL	0.962
S. pneumoniae D39V [8], first compound 0.0035 µg/mL, partner 2.5 µg/mL	0.943
S. pneumoniae D39V [8], first compound 0.0035 µg/mL, partner 5 µg/mL	0.736
S. pneumoniae D39V [8], first compound 0.007 µg/mL, partner 1.25 µg/mL	0.897
S. pneumoniae D39V [8], first compound 0.007 µg/mL, partner 2.5 µg/mL	0.778
S. pneumoniae D39V [8], first compound 0.007 µg/mL, partner 5 µg/mL	0.533
